Source: patent US20220009920A1 (GB005, Inc., priority 2020, published 2022)

Key:
Test in all cases: Large panel kinase profiling
Assay type in all cases: biochemical
Conditions in all cases: 1 μM test article, 1 mM ATP
GRK6 = biological target: T1, GRK6 (Homo sapiens, UniProt P43250)
T1 construct: AssayQuant Technologies, Inc. (service provider)
Procedure, shortened: (§1)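 Steps: combine kinase, CSox-Sensor substrate, 1 mM ATP and 1 μM compound; seal and incubate at 30° C.; read top fluorescence kinetically each minute, Ex 360 nm/Em 485 nm.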

CSNK2A1/CK2A1 = biological target: T2, CSNK2A1/CK2A1 (Homo sapiens, UniProt P68400)
T2 construct: AssayQuant Technologies, Inc. (service laboratory)
Procedure, shortened: as §1

MYLK4 = biological target: T3, MYLK4 (Homo sapiens, UniProt Q86YV6)
T3 construct: AssayQuant Technologies, Inc. (assay service)
T3 sequence (Q86YV6 1-388): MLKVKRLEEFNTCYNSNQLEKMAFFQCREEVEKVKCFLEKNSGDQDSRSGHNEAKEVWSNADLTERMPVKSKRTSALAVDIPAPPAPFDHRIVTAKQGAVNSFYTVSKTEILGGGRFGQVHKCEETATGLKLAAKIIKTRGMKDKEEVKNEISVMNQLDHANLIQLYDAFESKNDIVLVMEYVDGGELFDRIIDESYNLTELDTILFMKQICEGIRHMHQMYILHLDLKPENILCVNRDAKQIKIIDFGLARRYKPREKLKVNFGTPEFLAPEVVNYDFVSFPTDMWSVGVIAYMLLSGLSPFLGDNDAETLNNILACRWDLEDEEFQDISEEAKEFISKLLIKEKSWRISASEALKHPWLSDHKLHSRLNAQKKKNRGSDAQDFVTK
Procedure, shortened: as §1

MAP3K1 = MAP3K1 (Homo sapiens, UniProt Q13233)
Procedure, shortened: as §1

EPHA6 = biological target: T4, EPHA6 (Homo sapiens, UniProt Q9UF33)
T4 sequence (Q9UF33 23-1036): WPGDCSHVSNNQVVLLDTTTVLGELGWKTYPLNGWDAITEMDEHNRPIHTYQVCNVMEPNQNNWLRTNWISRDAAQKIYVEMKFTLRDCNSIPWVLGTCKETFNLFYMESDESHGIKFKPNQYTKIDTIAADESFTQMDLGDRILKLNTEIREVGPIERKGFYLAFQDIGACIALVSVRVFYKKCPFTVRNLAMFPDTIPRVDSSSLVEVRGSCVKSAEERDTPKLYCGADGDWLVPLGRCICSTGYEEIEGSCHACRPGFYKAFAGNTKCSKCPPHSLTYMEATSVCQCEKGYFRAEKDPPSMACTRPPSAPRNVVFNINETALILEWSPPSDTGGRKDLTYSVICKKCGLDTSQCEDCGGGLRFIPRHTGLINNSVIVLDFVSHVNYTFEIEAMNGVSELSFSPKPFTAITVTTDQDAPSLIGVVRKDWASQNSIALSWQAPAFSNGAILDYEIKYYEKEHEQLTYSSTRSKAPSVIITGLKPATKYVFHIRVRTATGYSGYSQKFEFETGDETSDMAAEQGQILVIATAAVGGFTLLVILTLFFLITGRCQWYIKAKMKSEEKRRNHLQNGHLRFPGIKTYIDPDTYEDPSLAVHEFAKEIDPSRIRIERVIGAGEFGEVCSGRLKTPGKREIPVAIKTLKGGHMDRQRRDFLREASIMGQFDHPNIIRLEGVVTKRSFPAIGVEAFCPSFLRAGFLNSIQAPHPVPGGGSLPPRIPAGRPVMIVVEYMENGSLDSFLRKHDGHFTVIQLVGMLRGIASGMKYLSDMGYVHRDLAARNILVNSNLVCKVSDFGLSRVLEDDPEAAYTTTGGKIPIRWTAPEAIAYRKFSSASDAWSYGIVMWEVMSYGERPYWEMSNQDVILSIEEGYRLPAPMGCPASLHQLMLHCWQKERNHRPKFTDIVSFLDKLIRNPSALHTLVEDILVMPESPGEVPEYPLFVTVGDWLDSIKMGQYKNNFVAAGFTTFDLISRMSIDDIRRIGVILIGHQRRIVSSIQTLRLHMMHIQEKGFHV
Procedure, shortened: as §1

ITK = biological target: T5, ITK (Homo sapiens, UniProt Q08881)
T5 sequence (Q08881 1-620): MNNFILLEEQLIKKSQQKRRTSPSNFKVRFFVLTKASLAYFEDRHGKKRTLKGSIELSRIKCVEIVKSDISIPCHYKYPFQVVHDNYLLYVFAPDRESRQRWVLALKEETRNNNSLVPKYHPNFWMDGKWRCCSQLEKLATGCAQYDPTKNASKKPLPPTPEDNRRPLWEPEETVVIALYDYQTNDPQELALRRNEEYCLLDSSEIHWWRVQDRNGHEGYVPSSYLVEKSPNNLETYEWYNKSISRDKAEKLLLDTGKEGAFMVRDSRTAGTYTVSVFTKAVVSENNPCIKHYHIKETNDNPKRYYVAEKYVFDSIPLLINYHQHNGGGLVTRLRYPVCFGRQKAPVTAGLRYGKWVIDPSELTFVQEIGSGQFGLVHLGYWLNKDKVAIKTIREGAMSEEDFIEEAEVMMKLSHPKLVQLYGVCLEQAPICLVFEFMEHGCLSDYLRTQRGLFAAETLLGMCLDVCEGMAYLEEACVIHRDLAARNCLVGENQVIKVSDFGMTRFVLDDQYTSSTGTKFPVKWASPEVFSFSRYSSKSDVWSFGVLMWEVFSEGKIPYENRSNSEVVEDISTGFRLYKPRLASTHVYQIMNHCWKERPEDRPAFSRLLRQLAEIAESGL
Procedure, shortened: as §1

MET = biological target: T6, MET (Homo sapiens, UniProt P08581)
T6 construct: AssayQuant Technologies, Inc. (assay service)
Procedure, shortened: as §1

DAPK2 = biological target: T7, DAPK2 (Homo sapiens, UniProt Q9UIK4)
T7 construct: AssayQuant Technologies, Inc. (service laboratory)
Procedure, shortened: as §1

T1 sequence (P43250 whole entry, species assumed): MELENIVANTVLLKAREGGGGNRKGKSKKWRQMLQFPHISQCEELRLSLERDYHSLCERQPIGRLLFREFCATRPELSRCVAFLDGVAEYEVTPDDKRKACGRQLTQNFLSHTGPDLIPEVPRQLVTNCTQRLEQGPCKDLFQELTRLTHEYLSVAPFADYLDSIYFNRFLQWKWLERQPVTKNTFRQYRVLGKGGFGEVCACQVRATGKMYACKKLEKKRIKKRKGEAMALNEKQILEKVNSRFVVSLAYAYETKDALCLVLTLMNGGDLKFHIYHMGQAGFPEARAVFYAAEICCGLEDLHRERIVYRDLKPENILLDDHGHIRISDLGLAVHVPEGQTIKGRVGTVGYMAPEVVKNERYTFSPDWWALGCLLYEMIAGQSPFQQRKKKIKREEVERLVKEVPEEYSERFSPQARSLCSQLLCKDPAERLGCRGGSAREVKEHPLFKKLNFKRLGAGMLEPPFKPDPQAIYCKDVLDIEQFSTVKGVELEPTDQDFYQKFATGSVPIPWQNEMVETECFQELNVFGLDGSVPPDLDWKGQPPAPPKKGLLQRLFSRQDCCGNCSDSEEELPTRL
Sequence of MAP3K1 (Q13233 whole entry, species assumed): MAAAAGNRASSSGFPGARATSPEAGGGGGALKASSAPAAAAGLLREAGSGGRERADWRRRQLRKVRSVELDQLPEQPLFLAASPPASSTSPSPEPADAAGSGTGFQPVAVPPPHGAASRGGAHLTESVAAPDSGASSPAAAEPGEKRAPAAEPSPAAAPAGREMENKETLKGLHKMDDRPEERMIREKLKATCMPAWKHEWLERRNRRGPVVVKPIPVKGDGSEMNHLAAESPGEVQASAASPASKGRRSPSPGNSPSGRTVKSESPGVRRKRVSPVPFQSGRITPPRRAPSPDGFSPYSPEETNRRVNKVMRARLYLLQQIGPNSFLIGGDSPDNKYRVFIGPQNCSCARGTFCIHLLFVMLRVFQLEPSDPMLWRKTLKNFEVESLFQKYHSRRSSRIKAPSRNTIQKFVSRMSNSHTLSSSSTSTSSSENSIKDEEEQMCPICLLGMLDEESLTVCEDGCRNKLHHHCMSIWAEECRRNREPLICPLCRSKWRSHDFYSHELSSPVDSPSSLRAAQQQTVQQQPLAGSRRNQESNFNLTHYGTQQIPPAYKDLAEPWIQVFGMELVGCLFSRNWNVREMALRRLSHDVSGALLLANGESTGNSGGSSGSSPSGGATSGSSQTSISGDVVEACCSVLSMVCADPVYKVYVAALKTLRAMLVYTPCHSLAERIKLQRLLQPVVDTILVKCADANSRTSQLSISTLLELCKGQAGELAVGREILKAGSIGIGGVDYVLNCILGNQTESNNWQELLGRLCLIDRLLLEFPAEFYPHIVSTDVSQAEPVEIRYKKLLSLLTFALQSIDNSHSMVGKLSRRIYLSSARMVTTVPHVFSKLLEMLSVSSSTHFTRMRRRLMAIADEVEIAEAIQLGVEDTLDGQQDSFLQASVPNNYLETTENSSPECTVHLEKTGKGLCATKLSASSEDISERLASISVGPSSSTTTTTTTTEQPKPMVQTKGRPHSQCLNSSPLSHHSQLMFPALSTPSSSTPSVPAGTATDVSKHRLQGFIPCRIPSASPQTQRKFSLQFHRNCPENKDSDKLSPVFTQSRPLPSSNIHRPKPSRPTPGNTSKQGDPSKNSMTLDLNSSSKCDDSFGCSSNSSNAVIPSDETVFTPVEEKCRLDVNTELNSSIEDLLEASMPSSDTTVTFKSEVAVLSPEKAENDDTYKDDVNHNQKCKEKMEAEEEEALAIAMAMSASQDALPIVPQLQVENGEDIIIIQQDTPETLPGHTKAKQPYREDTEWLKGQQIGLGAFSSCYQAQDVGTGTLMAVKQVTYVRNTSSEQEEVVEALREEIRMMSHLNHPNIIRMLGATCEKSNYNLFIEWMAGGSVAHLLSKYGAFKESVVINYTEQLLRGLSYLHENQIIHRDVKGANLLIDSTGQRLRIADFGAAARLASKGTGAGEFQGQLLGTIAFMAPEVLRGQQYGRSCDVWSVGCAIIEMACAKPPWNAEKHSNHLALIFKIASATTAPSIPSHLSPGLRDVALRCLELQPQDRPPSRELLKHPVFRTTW
T6 sequence (P08581 25-1390): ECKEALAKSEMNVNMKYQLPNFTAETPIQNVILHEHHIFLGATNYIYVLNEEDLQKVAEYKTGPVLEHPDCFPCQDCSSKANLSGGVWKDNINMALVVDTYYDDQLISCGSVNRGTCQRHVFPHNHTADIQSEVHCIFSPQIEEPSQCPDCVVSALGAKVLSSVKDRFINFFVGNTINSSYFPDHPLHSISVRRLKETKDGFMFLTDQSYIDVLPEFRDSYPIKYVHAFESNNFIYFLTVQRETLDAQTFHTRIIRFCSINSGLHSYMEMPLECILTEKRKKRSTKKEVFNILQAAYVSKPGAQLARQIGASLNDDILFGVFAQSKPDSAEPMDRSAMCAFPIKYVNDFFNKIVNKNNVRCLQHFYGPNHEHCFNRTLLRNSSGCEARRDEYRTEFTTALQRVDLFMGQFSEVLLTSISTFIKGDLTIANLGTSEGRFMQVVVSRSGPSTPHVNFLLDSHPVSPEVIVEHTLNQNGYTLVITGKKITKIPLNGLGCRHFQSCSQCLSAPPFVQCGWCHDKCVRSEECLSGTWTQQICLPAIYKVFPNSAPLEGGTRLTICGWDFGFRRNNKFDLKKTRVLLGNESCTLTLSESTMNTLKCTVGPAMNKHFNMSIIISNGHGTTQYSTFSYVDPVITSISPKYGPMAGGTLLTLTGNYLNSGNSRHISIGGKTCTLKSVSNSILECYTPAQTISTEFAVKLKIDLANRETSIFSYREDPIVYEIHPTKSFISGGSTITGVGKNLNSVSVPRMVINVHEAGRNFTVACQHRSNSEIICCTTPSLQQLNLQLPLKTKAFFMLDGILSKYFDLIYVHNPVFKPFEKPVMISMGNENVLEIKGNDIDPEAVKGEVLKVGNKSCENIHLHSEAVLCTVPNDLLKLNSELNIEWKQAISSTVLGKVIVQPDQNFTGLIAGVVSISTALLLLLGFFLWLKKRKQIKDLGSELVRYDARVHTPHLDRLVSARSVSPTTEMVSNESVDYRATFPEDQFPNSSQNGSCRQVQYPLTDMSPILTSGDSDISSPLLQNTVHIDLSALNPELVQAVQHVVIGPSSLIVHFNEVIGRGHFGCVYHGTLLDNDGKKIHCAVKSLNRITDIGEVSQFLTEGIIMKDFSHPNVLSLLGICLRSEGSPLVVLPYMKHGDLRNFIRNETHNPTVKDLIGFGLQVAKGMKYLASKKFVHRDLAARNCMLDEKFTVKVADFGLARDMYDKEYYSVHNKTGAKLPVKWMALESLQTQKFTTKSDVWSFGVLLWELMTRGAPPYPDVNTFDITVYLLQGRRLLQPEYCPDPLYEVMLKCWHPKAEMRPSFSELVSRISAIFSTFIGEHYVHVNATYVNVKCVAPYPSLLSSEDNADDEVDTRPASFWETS
T7 sequence (Q9UIK4 whole entry, species assumed): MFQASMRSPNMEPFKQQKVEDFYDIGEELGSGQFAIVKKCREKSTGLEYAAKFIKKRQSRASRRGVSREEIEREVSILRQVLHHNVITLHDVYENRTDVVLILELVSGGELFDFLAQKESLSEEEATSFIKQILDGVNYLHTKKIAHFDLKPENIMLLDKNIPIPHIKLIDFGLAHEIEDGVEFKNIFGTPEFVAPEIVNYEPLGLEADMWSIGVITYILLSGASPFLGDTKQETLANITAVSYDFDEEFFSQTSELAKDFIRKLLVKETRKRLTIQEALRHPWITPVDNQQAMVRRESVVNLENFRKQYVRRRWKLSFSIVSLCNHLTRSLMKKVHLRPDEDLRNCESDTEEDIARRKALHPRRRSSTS
T2 sequence (P68400 whole entry): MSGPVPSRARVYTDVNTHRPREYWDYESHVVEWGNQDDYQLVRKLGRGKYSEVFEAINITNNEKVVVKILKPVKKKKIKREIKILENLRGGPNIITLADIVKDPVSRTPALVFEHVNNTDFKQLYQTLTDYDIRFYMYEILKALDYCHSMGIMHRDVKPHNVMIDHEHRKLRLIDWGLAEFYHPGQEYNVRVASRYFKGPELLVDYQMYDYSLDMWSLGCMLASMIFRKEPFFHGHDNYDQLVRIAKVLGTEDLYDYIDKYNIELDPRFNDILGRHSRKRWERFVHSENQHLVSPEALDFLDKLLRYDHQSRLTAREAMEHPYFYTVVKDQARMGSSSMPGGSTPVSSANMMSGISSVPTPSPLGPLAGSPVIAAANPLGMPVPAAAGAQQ

SMILES	inhibition at 1 µM (GRK6)	inhibition at 1 µM (CSNK2A1/CK2A1)	inhibition at 1 µM (MYLK4)	inhibition at 1 µM (MAP3K1)	inhibition at 1 µM (EPHA6)	inhibition at 1 µM (ITK)	inhibition at 1 µM (MET)	inhibition at 1 µM (DAPK2)
C=CC(=O)N1CCCC(c2c(F)cc(C(N)=O)c3[nH]c4c(c23)CCCCC4)C1 (single isomer, unassigned) [Compound 5-6]	8%	0.4%	29.7%	6.4%	6.1%	44.8%	12%	-19.1%
C=CC(=O)N1CCC[C@@H](c2c(F)cc(C(N)=O)c3[nH]c4c(c23)CCC4)C1 [Compound 10-2, (S)-8-(1-acryloylpiperidin-3-yl)-7-fluoro-1,2,3,4-tetrahydrocyclo-penta[b]indole-5-carboxamide]	-1.9%	-32%	-21.1%	10.3%	-17.7%	12.2%	28.1%	13.9%
C=CC(=O)N1CCC[C@@H](c2c(F)cc(C(N)=O)c3[nH]c4c(c23)CC2(CC4)CC2)C1 [Compound 6-2, (S)-5-(1-acryloylpiperidin-3-yl)-6-fluoro-1,2,4,9-tetrahydrospiro[carbazole-3,1′-cyclopropane]-8-carboxamide]	-3.1%	-12%	-30.5%	-7.9%	-14.6%	29.2%	18.9%	13.4%
